From patent US4962109A, “Insecticidally and acaricidally active pyrimidine esters and intermediates therefor” (Imperial Chemical Industries PLC, priority 1985, dated 1990)

Assays:
Assay type in all cases: in vivo
[1] = test system: Tetranychus urticae (spider mites - adult); experiment: Contact test on spider mites - adult (TUa), French bean leaf, mortality; details: 72 h, 500 ppm, contact, 3 days, read-out: TUa grading of mortality
Procedure, shortened: (§1)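 Graded read-out: A 80-100%, B 50-79%, C below 50% mortality or knockdown, assessed usually 1-3 days post-treatment. Liquid preparations at 500, 250 or 100 ppm by weight, from acetone solution diluted in water with 0.01% wetting agent, applied to pests and/or their host plant or food medium.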

[2] = test system: Tetranychus urticae (spider mites - ova); experiment: Contact test on spider mites - ova (TUe), French bean leaf, mortality; details: 144 h, 500 ppm, contact, 6 days, read-out: TUe grading of mortality
Procedure, shortened: as §1

[3] = test system: Myzus persicae (aphids); experiment: Contact test on aphids (MP), Chinese Cabbage leaf, mortality; details: 72 h, 500 ppm, contact, 3 days, read-out: MP grading of mortality
Procedure, shortened: as §1

[4] = test system: Nephotettix cincticeps (green leaf hopper - nymphs); experiment: Contact test on green leaf hopper nymphs (NC), Rice plant, mortality; details: 48 h, 500 ppm, contact, 2 days, read-out: NC grading of mortality
Procedure, shortened: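 Product dissolved in acetone, diluted in water with 0.01% wetting agent to 500, 250 or 100 ppm; nymphs and/or host rice plants treated. Mortality or knockdown assessed 1–3 days later, graded A (80-100%), B (50-79%), C (<50%).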

[5] = test system: Musca domestica (houseflies - adults); experiment: Knockdown test on houseflies - adults (MD/KD), Cotton wool/sugar; details: 500 ppm, 4 hours, read-out: MD/KD grading of knockdown
Procedure, shortened: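 Adult houseflies exposed to the compound at 500, 250 or 100 ppm in acetone/water with 0.01% wetting agent, on a cotton wool/sugar medium. Knockdown and mortality assessed, graded A (80-100%), B (50-79%) or C (<50%).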

[6] = test system: Musca domestica (houseflies - adults); experiment: Contact test on houseflies - adults (MD), Cotton wool/sugar, mortality; details: 72 h, 500 ppm, contact, 3 days, read-out: MD grading of mortality
Procedure, shortened: as §1

[7] = test system: Blattella germanica (cockroach nymphs); experiment: Contact test on cockroach nymphs (BG/C), Plastic pot, mortality; details: 48 h, 500 ppm, contact, 2 days, read-out: BG/C grading of mortality
Procedure, shortened: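 Cockroach nymphs and/or their medium were treated with aqueous preparations at 500, 250 or 100 ppm (acetone solution diluted in water with 0.01% Lissapol NX wetting agent). Mortality or knockdown was assessed typically 1–3 days later and graded A (80–100%), B (50–79%) or C (<50%).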

[8] = test system: Heliothis virescens (tobacco budworm - larvae); experiment: Residual test on tobacco budworm larvae (HV), Cotton leaf, mortality; details: 48 h, read-out: HV grading of mortality
Procedure, shortened: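 Product in acetone diluted with water containing 0.01% Lissapol NX, at 500, 250 or 100 ppm; pests and/or host medium (here cotton leaf) treated. Mortality scored one to three days later, graded A (80-100%), B (50-79%), C (<50%).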

[9] = test system: Spodoptera exigua (lesser army worm - larvae); experiment: Residual test on lesser army worm larvae (SP), Cotton leaf, mortality; details: 48 h, 500 ppm, residual, 2 days, read-out: SP grading of mortality
Procedure, shortened: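 Product dissolved in acetone and diluted in water with 0.01% wetting agent to 500, 250 or 100 ppm; larvae and/or cotton leaf host treated. Mortality or knockdown scored one to three days later and graded A (80-100%), B (50-79%) or C (<50%).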

[10] = test system: Diabrotica balteata (rootworm larvae); experiment: Residual test on rootworm larvae (DB), Filter paper/maize seed, mortality; details: 48 h, 500 ppm, residual, 2 days, read-out: DB grading of mortality
Procedure, shortened: as §1

Compound	mortality at 500 ppm [1]	mortality at 500 ppm [2]	mortality at 500 ppm [3]	mortality at 500 ppm [4]	pest or weed control at 500 ppm [5]	mortality at 500 ppm [6]	mortality at 500 ppm [7]	mortality at 500 ppm [8]	mortality at 500 ppm [9]	mortality at 500 ppm [10]
CC(C)(C)c1ncc(C(C(=O)OCc2cccc(Oc3ccc(Cl)cc3)c2)C(C)(C)C)cn1 (racemic) [Compound 180, 3-(4-chlorophenoxy)benzyl (RS)-2-[2-(1,1-dimethylethyl)pyrimidin-5-yl]-3,3-dimethylbutanoate]	80 to 100%	< 50%	80 to 100%	80 to 100%	80 to 100%	80 to 100%	< 50%	80 to 100%	80 to 100%	< 50%
C[C@@H](OC(=O)[C@@H](c1cnc(C(C)(C)C)nc1)C(C)(C)C)c1cccc(Oc2ccc(Cl)cc2)n1 (racemic) [Compound 181, (RS)-1-[6-(4-chlorophenoxy)pyrid-2-yl]ethyl (RS)-2-[2-(1,1-dimethylethyl)pyrimidin-5-yl]-3,3-dimethylbutanoate]	80 to 100%	< 50%	80 to 100%	80 to 100%	80 to 100%	80 to 100%	< 50%	80 to 100%	80 to 100%	80 to 100%
CSc1c(COC(=O)C(c2cnc(C(C)(C)C)nc2)C(C)(C)C)cc(F)c(C)c1F (racemic) [Compound 182, 4-methyl-2-thiomethyl-3,5-difluorobenzyl (RS)-2-[2-(1,1-dimethylethyl)pyrimidin-5-yl]-3,3dimethylbutanoate]	80 to 100%	< 50%	50 to 79%	80 to 100%	< 50%	< 50%	< 50%	< 50%	< 50%	< 50%
CSc1c(F)c(F)c(COC(=O)C(c2cnc(C(C)(C)C)nc2)C(C)(C)C)c(F)c1F (racemic) [Compound 183]	80 to 100%	< 50%	< 50%	80 to 100%	80 to 100%	80 to 100%	< 50%	80 to 100%	80 to 100%	< 50%
CCOc1c(F)c(COC)c(F)c(F)c1COC(=O)C(c1cnc(C(C)(C)C)nc1)C(C)(C)C (racemic) [Compound 185, 2,3,5-trifluoro-6-ethoxy-4-(methoxymethyl)benzyl (RS)-2-[2-(1,1-dimethylethyl)pyrimidin-5-yl]-3,3-dimethylbutanoate]	80 to 100%	< 50%	80 to 100%	80 to 100%	80 to 100%	50 to 79%	< 50%	80 to 100%	80 to 100%	< 50%
CCOCc1c(F)c(F)c(COC(=O)C(c2cnc(C(C)(C)C)nc2)C(C)(C)C)c(F)c1F (racemic) [Compound 186, 2,3,5,6-tetrafluoro-4-(ethoxymethyl)benzyl (RS)-2-[2-(1,1-dimethylethyl)pyrimidin-5-yl]-3,3-dimethylbutanoate]	80 to 100%	< 50%	80 to 100%	80 to 100%	80 to 100%	< 50%	< 50%	80 to 100%	80 to 100%	< 50%
CCOCc1c(F)c(F)c(COC(=O)C(c2cnc(C(C)(C)C)nc2)C(C)(C)C)c(OC)c1F (racemic) [Compound 187, 2,3,5-trifluoro-6-methoxy-4-(ethoxymethyl)benzyl (RS)-2-[2-(1,1-dimethylethyl)pyrimidin-5-yl]-3,3-dimethylbutanoate]	80 to 100%	< 50%	80 to 100%	80 to 100%	80 to 100%	50 to 79%	< 50%	50 to 79%	80 to 100%	< 50%
CCOCc1c(F)c(F)c(COC(=O)C(c2cnc(C(C)(C)C)nc2)C(C)(C)C)c(OCC)c1F (racemic) [Compound 188, 2,3,5-trifluoro-6-ethoxy-4-(ethoxymethyl)benzyl (RS)-2-[2-(1,1-dimethylethyl)pyrimidin-5-yl]-3,3-dimethylbutanoate]	80 to 100%	< 50%	80 to 100%	50 to 79%	< 50%	< 50%	< 50%	50 to 79%	80 to 100%	< 50%
CC(C)OCc1c(F)c(F)c(COC(=O)C(c2cnc(C(C)(C)C)nc2)C(C)(C)C)c(F)c1F (racemic) [Compound 189, 2,3,5,6-tetrafluoro-4-[(1-methyl)ethoxy]methylbenzyl (RS)-2-[2-(1,1-dimethylethyl)-pyrimidin-5-yl]-3,3dimethylbutanoate]	80 to 100%	< 50%	80 to 100%	80 to 100%	50 to 79%	< 50%	< 50%	< 50%	80 to 100%	< 50%
COc1c(F)c(COC(C)C)c(F)c(F)c1COC(=O)C(c1cnc(C(C)(C)C)nc1)C(C)(C)C (racemic) [Compound 190, 2,3,5-trifluoro-6-methoxy-4-[(1-methyl)ethoxy]methylbenzyl (RS)-2-[2-(1,1-dimethylethyl)pyrimidin-5-yl]-3,3-dimethylbutanoate]	80 to 100%	< 50%	80 to 100%	80 to 100%	80 to 100%	< 50%	< 50%	80 to 100%	80 to 100%	< 50%
CC(C)(C)c1ncc(C(C(=O)OCc2c(F)c(F)c(COc3ccccc3)c(F)c2F)C(C)(C)C)cn1 (racemic) [Compound 192, 2,3,5,6-tetrafluoro-4-(phenoxymethyl)benzyl (RS)-2-[2-(1,1-dimethylethyl)pyrimidin-5-yl]-3,3-dimethylbutanoate]	80 to 100%	< 50%	50 to 79%	< 50%	< 50%	< 50%	< 50%	< 50%	80 to 100%	< 50%
COc1c(F)c(COc2ccccc2)c(F)c(F)c1COC(=O)C(c1cnc(C(C)(C)C)nc1)C(C)(C)C (racemic) [Compound 193, 2,3,5-trifluoro-6-methoxy-4-(phenoxymethyl)benzyl (RS)-2-[2-(1,1-dimethylethyl)pyrimidin-5-yl]-3,3-dimethylbutanoate]	80 to 100%	< 50%	80 to 100%	50 to 79%	< 50%	< 50%	< 50%	< 50%	80 to 100%	< 50%
